{
  "source": "paper PMC3931646",
  "about": "“A Cyclic Nucleotide-Gated Channel Mutation Associated with Canine Daylight Blindness Provides Insight into a Role for the S2 Segment Tri-Asp motif in Channel Biogenesis” (PLoS ONE, 2014)",
  "key": {"[1]": {"molecular_target": "T1, cA3+ hB3 (Canis lupus familiaris; Homo sapiens, UniProt A0A068LEV2+Q9NQW8)", "T1 construct": "gene CNGA3; inter-species heterotetramer: canine CNGA3 with C-terminal YFP co-expressed with untagged human CNGB3 (pcDNA3.1) in tSA201 cells; stoichiometry debated (2:2 or 3:1)", "T1 sequence (A0A068LEV2 1-708)": "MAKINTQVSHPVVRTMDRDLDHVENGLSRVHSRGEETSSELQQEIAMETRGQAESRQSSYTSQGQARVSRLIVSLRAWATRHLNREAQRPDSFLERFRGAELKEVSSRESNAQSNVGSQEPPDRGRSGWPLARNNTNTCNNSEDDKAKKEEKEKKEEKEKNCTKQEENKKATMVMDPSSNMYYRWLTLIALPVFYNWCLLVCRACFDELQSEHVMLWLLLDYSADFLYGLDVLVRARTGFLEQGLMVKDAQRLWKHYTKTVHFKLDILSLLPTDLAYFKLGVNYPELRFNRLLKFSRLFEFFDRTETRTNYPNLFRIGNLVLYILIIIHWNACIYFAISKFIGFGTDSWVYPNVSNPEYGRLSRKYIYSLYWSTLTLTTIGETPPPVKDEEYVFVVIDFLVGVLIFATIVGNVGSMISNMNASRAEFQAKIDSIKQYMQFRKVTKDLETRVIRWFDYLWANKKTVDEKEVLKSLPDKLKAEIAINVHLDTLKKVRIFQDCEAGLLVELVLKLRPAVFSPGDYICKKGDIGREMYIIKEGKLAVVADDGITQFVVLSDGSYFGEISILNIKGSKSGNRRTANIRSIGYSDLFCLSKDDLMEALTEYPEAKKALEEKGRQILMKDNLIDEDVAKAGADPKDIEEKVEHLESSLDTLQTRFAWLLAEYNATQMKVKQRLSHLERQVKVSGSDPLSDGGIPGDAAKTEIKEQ", "T1 sequence (Q9NQW8 1-809)": "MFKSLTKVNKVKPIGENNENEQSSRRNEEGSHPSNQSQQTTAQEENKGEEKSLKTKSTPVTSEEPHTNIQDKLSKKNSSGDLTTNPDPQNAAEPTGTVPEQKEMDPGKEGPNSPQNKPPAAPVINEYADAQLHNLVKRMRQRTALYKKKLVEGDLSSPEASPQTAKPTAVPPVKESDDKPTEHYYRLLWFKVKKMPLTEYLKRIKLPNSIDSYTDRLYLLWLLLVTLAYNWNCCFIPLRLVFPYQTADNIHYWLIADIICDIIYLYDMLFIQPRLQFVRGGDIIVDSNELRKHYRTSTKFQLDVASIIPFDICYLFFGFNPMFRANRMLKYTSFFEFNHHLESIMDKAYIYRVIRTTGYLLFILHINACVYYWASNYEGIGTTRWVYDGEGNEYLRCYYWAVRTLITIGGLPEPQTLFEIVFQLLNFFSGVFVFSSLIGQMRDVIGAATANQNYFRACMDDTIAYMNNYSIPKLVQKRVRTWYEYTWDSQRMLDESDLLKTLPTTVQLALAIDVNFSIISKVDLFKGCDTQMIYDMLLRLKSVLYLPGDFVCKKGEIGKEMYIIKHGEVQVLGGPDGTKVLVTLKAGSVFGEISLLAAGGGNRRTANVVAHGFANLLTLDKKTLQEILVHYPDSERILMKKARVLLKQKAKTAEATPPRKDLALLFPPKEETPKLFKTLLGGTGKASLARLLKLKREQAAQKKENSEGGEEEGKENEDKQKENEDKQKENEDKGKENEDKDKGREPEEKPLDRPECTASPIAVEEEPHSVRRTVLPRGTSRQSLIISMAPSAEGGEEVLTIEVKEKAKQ", "assay": "inside-out patch electrophysiology, current block", "format": "biochemical", "settings": "25 µM; channel block; 25 µM L-cis-diltiazem with 100 µM cGMP, -60 mV, 120 mM NaCl, EDTA/EGTA, pH 7.4, room temperature", "text": "inside-out patch electrophysiology, current block on cA3+ hB3"}, "[2]": {"molecular_target": "T2, cA3 (Canis lupus, UniProt A0A068LEV2)", "T2 construct": "gene CNGA3; full-length coding region cloned from canine retina, C-terminal YFP (pEYFP-N1, stop removed), tSA201 cells, homotetramer", "T2 sequence (A0A068LEV2 1-708)": "T1 sequence (A0A068LEV2 1-708)", "assay": "inside-out patch electrophysiology, current block", "format": "biochemical", "settings": "25 µM; channel block; 25 µM L-cis-diltiazem with 100 µM cGMP, -60 mV, 120 mM NaCl, EDTA/EGTA, pH 7.4, room temperature", "text": "inside-out patch electrophysiology, current block on cA3"}},
  "data": [
    {"smiles": "COc1ccc([C@H]2Sc3ccccc3N(CCN(C)C)C(=O)[C@H]2OC(C)=O)cc1", "note": "[L-cis-diltiazem]", "values": [
      {"measurement": "Idil/I", "setting": "[1]", "value": "0.40±0.02"},
      {"measurement": "Idil/I", "setting": "[2]", "value": "0.79±0.05"}
    ]}
  ]
}
